Laboratory results as given in US10994015B2, “EGFR proteolysis targeting chimeric molecules and associated methods of use” (Arvinas Operations, Inc., priority 2016, dated 2021).

Key:
HER3 = HER3 (Homo sapiens (Human), UniProt P21860); assay: TR-FRET assay for ERBB kinases; assay type: biochemical; details: geometric mean if measured more than once
[1] = target: EGFR L858R/T790M/C797S triple mutant (H520*) (Homo sapiens (Human), UniProt P00533, C797S/L858R/T790M); assay: EGFR protein degradation assay (Western blot); assay type: cell-based; details: 72 hours, 300 nM to 10 nM
Method in brief: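 EGFR loss in the triple-mutant line measured by immunoblot: clarified lysates normalised by BCA, run on 4-12% Bis-Tris gels, blotted to PVDF, probed with HRP anti-rabbit secondary. Before lysis, cells were dosed from 1, 0.3, 0.1, 0.03 and 0.01 mM DMSO stocks (not final concentrations) after overnight culture at 37° C.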

[2] = target: EGFR-wt (MDA-MB-231 or MCF7 or A549 or OVCAR8) (Homo sapiens (Human), UniProt P00533); assay: EGFR protein degradation assay (Western blot); assay type: cell-based; details: 72 hours, 300 nM to 10 nM
Method in brief: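 EGFR degradation was assessed by Western blot. Cells expressing the appropriate EGFR were seeded in 6-well plates (300,000 cells per well) and adhered overnight. Media was removed, cells were washed with cold phosphate-buffered saline, scraped into 400 μl Cell Signaling lysis buffer plus protease inhibitor cocktail, and spun once at 10 000 rpm for 10 minutes. After BCA quantification, loading buffer and reducing agent were added. Gels loaded with 10 μg protein ran at 165V for 2 hours, and bands were visualized by chemiluminescence.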

[3] = target: EGFR L858R/T790M double mutant (H1975) (Homo sapiens (Human), UniProt P00533, L858R/T790M); assay: EGFR protein degradation assay (Western blot); assay type: cell-based; details: 72 hours, 300 nM to 10 nM
Method in brief: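 EGFR protein levels were measured by immunoblotting. Lysate protein was quantified by BCA, and 10 μg per sample was separated by SDS/PAGE at 165V for 2 hours and transferred to PVDF. Membranes were blocked in TBS-T with 5% milk for 1 hour, probed overnight at 4° C with EGFR and tubulin antibodies, then secondary antibody for 1 hour, and detected by ECL on a Chemidoc.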

EGFR Exon 20 ASV (HeLa*) = EGFR Exon 20 ASV (HeLa*) (Homo sapiens (Human), UniProt P00533, DUP767-769); assay: EGFR protein degradation assay (Western blot); assay type: cell-based; details: 72 hours, 300 nM to 10 nM
EGFR L858R/T790M/C797S = EGFR L858R/T790M/C797S (Homo sapiens (Human), UniProt P00533, C797S/L858R/T790M); assay: TR-FRET assay for ERBB kinases; assay type: biochemical; details: geometric mean if measured more than once
Method in brief: (§1)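 Detection: LanthaScreen Tb-pY20 antibody with EDTA, emission at 490 and 520 nm after 340 nm excitation. Reaction: 10 min at room temperature following 10 min compound–enzyme pre-incubation, started by a substrate mix of 3 mM ATP and 30 uM fluorescein-poly-GluTyr in HEPES pH 7.5.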

EGFR WT = EGFR WT (Homo sapiens (Human), UniProt P00533); assay: TR-FRET assay for ERBB kinases; assay type: biochemical; details: geometric mean if measured more than once
Method in brief: as §1

EGFR L858R/T790M = EGFR L858R/T790M (Homo sapiens (Human), UniProt P00533, L858R/T790M); assay: TR-FRET assay for ERBB kinases; assay type: biochemical; details: geometric mean if measured more than once
Method in brief: as §1

EGFR Exon20NPG = EGFR Exon20NPG (Homo sapiens (Human), UniProt P00533, INS770NPG); assay: TR-FRET assay for ERBB kinases; assay type: biochemical; details: geometric mean if measured more than once
Method in brief: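 Phosphorylation of fluorescein-labeled poly-GluTyr read as TR-FRET using Tb-pY20 antibody after EDTA stop, with 340 nm excitation. Kinase reaction ran 10 min at room temperature following 10 min compound pre-incubation; substrate mix held 3 mM ATP and 30 µM peptide before addition. Buffer was HEPES pH 7.5.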

Chain of EGFR L858R/T790M (P00533 25-1210 T790M/L858R): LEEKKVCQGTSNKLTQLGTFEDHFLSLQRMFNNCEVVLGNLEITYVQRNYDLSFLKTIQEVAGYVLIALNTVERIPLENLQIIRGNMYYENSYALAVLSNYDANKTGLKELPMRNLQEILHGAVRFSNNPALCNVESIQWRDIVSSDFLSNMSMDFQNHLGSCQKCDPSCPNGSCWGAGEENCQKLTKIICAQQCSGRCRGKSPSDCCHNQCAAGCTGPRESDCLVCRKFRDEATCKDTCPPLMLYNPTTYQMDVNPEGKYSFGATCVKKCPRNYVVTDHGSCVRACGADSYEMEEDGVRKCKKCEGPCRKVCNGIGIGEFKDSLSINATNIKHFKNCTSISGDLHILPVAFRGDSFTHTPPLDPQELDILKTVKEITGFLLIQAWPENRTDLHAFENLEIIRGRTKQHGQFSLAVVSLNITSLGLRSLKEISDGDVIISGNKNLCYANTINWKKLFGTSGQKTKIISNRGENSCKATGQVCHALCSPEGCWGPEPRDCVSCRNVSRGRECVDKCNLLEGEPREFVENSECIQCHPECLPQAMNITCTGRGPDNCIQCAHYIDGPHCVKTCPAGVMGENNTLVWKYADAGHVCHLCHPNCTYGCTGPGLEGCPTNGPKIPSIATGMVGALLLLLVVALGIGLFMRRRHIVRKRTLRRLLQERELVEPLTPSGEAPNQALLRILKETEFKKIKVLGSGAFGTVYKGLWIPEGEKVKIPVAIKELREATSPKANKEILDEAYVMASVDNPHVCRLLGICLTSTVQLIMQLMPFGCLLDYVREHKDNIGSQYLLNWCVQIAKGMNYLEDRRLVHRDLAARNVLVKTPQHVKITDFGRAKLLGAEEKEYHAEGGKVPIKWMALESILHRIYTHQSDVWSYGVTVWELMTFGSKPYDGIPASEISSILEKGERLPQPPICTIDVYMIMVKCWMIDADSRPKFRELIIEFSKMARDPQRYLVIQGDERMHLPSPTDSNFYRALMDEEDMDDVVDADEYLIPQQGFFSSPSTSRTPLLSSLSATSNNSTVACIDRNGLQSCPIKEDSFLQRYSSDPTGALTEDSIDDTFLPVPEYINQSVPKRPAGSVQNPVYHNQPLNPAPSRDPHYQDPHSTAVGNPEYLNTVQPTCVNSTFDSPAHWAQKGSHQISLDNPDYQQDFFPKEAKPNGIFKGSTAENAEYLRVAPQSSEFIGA
Chain of EGFR L858R/T790M double mutant (H1975) (P00533 25-1210 T790M/L858R): as above
Chain of HER3 (P21860 20-1342, species assumed): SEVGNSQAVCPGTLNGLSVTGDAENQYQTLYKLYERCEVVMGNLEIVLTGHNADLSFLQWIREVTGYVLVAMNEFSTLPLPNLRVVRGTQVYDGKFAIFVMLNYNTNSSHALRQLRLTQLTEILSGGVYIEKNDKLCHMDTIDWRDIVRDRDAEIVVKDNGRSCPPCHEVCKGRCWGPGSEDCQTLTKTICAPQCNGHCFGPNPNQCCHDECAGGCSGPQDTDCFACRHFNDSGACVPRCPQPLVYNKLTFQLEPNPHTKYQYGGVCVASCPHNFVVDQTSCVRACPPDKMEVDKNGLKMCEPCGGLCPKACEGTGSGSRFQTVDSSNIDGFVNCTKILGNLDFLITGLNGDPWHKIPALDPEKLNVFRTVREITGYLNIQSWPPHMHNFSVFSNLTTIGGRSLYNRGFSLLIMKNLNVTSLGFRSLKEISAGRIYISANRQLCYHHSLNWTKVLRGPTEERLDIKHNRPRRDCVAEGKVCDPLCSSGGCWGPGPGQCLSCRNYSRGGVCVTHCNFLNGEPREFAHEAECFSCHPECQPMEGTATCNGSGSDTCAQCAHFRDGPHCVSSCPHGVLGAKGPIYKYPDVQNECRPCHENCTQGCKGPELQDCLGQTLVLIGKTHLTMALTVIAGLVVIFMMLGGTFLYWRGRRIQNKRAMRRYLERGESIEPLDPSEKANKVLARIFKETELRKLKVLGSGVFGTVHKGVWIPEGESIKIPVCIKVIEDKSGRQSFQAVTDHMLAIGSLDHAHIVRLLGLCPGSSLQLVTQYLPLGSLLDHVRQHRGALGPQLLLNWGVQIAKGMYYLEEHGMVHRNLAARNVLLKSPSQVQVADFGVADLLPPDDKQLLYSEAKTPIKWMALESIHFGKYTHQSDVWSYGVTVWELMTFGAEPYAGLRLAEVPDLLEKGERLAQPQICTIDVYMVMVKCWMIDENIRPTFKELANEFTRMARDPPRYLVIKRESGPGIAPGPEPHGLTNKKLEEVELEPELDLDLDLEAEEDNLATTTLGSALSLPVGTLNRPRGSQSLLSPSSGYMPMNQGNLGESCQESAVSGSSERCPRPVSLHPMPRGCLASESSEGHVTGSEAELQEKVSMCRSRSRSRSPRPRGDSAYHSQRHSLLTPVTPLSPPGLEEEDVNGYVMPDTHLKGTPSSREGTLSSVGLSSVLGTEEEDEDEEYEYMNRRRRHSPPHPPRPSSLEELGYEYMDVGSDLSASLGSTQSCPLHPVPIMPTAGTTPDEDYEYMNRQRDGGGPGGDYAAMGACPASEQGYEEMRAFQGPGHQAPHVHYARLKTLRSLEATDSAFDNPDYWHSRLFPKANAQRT
Chain of EGFR WT (P00533 25-1210): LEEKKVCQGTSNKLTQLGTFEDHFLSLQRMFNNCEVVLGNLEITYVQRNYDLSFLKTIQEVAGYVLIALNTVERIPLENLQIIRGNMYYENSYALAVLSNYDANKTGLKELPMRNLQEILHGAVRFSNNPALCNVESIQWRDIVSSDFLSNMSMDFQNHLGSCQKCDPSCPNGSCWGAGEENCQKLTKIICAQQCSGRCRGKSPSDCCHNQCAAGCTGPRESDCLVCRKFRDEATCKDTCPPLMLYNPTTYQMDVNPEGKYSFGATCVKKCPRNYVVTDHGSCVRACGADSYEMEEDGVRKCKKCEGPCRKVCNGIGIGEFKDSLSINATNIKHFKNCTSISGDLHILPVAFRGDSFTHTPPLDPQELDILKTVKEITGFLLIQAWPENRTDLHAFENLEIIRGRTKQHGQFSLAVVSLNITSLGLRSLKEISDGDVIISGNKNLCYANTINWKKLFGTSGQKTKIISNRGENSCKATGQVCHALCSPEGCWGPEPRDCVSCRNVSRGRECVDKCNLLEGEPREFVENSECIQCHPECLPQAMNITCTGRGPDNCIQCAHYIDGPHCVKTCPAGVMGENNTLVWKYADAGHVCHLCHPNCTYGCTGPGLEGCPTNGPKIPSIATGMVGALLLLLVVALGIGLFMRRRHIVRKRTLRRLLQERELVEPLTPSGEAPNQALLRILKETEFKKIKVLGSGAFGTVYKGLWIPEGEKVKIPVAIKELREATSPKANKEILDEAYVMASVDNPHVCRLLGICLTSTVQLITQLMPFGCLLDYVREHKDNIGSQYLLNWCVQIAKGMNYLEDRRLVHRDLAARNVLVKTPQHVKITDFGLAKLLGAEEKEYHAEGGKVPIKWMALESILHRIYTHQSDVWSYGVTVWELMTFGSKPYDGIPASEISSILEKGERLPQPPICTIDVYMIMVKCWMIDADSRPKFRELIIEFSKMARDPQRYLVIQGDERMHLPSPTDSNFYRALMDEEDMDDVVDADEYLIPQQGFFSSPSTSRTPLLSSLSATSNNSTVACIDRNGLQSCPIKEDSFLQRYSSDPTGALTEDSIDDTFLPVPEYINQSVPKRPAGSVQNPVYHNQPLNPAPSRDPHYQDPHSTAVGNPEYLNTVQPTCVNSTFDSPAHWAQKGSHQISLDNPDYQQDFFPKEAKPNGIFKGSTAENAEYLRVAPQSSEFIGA

Compound | IC50 (HER3) [µM] | EGFR protein remaining, EGFR L858R/T790M/C797S triple mutant [1] | EGFR protein remaining, EGFR-wt [2] | EGFR protein remaining, EGFR L858R/T790M double mutant [3] | EGFR protein remaining, EGFR Exon 20 ASV (EGFR Exon 20 ASV (HeLa*)) | IC50 (EGFR L858R/T790M/C797S) [µM] | IC50 (EGFR WT) [µM] | IC50 (EGFR L858R/T790M) [µM] | IC50 (EGFR Exon20NPG) [µM]
Cc1ncsc1-c1ccc(CNC(=O)[C@@H]2C[C@@H](O)CN2C(=O)[C@@H](NC(=O)CCCCCOCCCCOCCCCOc2cc3ncnc(Nc4ccc(F)c(Cl)c4)c3cc2NC(=O)/C=C/CN(C)C)C(C)(C)C)cc1 [Example 66, (2S,4R)-1-((S)-2-(6-(4-(4-((4-((3-chloro-4-fluorophenyl)amino)-6-((E)-4-(dimethylamino)but-2-enamido)quinazolin-7-yl)oxy)butoxy)butoxy)hexanamido)-3,3-dimethylbutanoyl)-4-hydroxy-N-(4-(4-methylthiazol-5-yl)benzyl)pyrrolidine-2-carboxamide] | 6.6 | C (>80% EGFR protein remaining after 72 hours of incubation with the test compound at a concentration of 300 nM) | A (≤50% EGFR protein remaining after 72 hours of incubation with the test compound at a concentration between 300 nM and 10 nM) | A (≤50% EGFR protein remaining after 72 hours of incubation with the test compound at a concentration between 300 nM and 10 nM) | B (≤80% and >50% EGFR protein remaining after 72 hours of incubation with the test compound at a concentration between 300 nM and 10 nM) | – | – | – | –
COC1CCN(c2nccc(Nc3cc4c(cn3)nc(COCCN3CCN(CCOc5ccc6c(c5)C(=O)N(C5CCC(=O)NC5=O)C6=O)CC3)n4C(C)C)n2)CC1 (centres unmarked) [Example 76, 2-(2,6-dioxopiperidin-3-yl)-5-(2-(4-(2-((1-isopropyl-6-((2-(4-methoxypiperidin-1-yl)pyrimidin-4-yl)amino)-1H-imidazo[4,5-c]pyridin-2-yl)methoxy)ethyl)piperazin-1-yl)ethoxy)isoindoline-1,3-dione] | 8.6 | C (>80% EGFR protein remaining after 72 hours of incubation with the test compound at a concentration of 300 nM) | – | C (>80% EGFR protein remaining after 72 hours of incubation with the test compound at a concentration of 300 nM) | – | 0.036 | 17 | 0.36 | 14
COC1(CCN2CCN(c3ccc4c(c3)C(=O)N(C3CCC(=O)NC3=O)C4=O)CC2)CCN(c2nccc(Nc3cc4c(cn3)nc(C)n4C(C)C)n2)CC1 (centres unmarked) [Example 78, 2-(2,6-dioxopiperidin-3-yl)-5-(4-(2-(1-(4-((1-isopropyl-2-methyl-1H-imidazo[4,5-c]pyridin-6-yl)amino)pyrimidin-2-yl)-4-methoxypiperidin-4-yl)ethyl)piperazin-1-yl)isoindoline-1,3-dione] | 25 | C (>80% EGFR protein remaining after 72 hours of incubation with the test compound at a concentration of 300 nM) | – | C (>80% EGFR protein remaining after 72 hours of incubation with the test compound at a concentration of 300 nM) | – | 0.025 | 5.7 | 0.25 | 5.6
Cc1ncsc1-c1ccc([C@H](C)NC(=O)[C@@H]2C[C@@H](O)CN2C(=O)[C@@H](NC(=O)CN2CCN(CCCC#Cc3cccc4c3C(=O)N(C(C(=O)Nc3nccs3)c3cc(F)ccc3O)C4)CC2)C(C)(C)C)cc1 (stereo partly drawn) [Example 80, (2S,4R)-1-((2S)-2-(2-(4-(5-(2-(1-(5-fluoro-2-hydroxyphenyl)-2-oxo-2-(thiazol-2-ylamino)ethyl)-3-oxoisoindolin-4-yl)pent-4-yn-1-yl)piperazin-1-yl)acetamido)-3,3-dimethylbutanoyl)-4-hydroxy-N—((S)-1-(4-(4-methylthiazol-5-yl)phenyl)ethyl)pyrrolidine-2-carboxamide] | > 30 | C (>80% EGFR protein remaining after 72 hours of incubation with the test compound at a concentration of 300 nM) | – | C (>80% EGFR protein remaining after 72 hours of incubation with the test compound at a concentration of 300 nM) | – | 2.2 | 4.7 | 4.7 | 13
Cc1ncsc1-c1ccc(CNC(=O)[C@@H]2C[C@@H](O)CN2C(=O)[C@@H](NC(=O)COCCOCCOc2ccc(-c3ccc4ncnc(Nc5ccc(OCc6cccc(F)c6)c(Cl)c5)c4c3)cc2)C(C)(C)C)cc1 [Example 97, (2S,4R)-1-((S)-2-(2-(2-(2-(4-(4-((3-Chloro-4-((3-fluorobenzyl)oxy)phenyl)amino)quinazolin-6-yl)phenoxy)ethoxy)ethoxy)acetamido)-3,3-dimethylbutanoyl)-4-hydroxy-N-(4-(4-methylthiazol-5-yl)benzyl)pyrrolidine-2-carboxamide] | 29 | – | A (≤50% EGFR protein remaining after 72 hours of incubation with the test compound at a concentration between 300 nM and 10 nM) | B (≤80% and >50% EGFR protein remaining after 72 hours of incubation with the test compound at a concentration between 300 nM and 10 nM) | A (≤50% EGFR protein remaining after 72 hours of incubation with the test compound at a concentration between 300 nM and 10 nM) | > 30 | 1.5 | > 30 | > 30
Cc1ncsc1-c1ccc([C@H](C)NC(=O)[C@H]2C[C@H](O)CN2C(=O)[C@@H](NC(=O)COCCOCCOCC#Cc2cccc3c2C(=O)N(C(C(=O)Nc2nccs2)c2cc(F)ccc2O)C3)C(C)(C)C)cc1 (some centres unmarked) [compound 84] | > 30 | – | – | C (>80% EGFR protein remaining after 72 hours of incubation with the test compound at a concentration of 300 nM) | – | 0.27 | 1.8 | 0.68 | 5.3
COC1CCN(c2nccc(Nc3cc4c(cn3)nc(COCCCN3CCN(CCCOc5ccc6c(c5)C(=O)N(C5CCC(=O)NC5=O)C6=O)CC3)n4C(C)C)n2)CC1 (centres unmarked) [compound 89] | > 30 | – | – | C (>80% EGFR protein remaining after 72 hours of incubation with the test compound at a concentration of 300 nM) | – | 0.65 | > 30 | 1.6 | > 30
Cc1ncsc1-c1ccc([C@H](C)NC(=O)[C@H]2C[C@H](O)CN2C(=O)[C@@H](NC(=O)CN2CCN(CCCOCC#Cc3cccc4c3C(=O)N(C(C(=O)Nc3nccs3)c3cc(F)ccc3O)C4)CC2)C(C)(C)C)cc1 (some centres unmarked) [compound 90] | 29 | C (>80% EGFR protein remaining after 72 hours of incubation with the test compound at a concentration of 300 nM) | – | C (>80% EGFR protein remaining after 72 hours of incubation with the test compound at a concentration of 300 nM) | – | 0.69 | 1.3 | 0.74 | 3.4
